Tests used:
[1] = test system: p-ERK (T202); assay: Western blot of p-ERK after ATP stimulation; assay type: cell-based, human; conditions: MDA-miR-708 vs MDA cells after ATP
Description: Cells were homogenized in 1×RIPA lysis buffer (Millipore) containing protease inhibitors (Roche Applied Science) and 1× phosphatase inhibitor (Thermo Scientific). Samples were boiled in 1× NuPAGE LDS sampling buffer (Invitrogen), and loaded onto 4-20% gradient Tris-HCl gels (BioRad). Western blotting was performed using antibodies specific for NNAT (Cat#AB27266, Abcam), EPDR1 (Cat# SC81820, Santa Cruz), SSRP1 (Cat#SC56782, Santa Cruz), HOXB3 (Cat# SC17161, Santa Cruz), HNRNPK (Cat# SC28380, Santa Cruz), CNTFR, Phospho-p44/42 MAPK (Erk1/2, Cat #4370, Cell Signaling), p44/42 MAPK (Erk1/2, Cat #4695, Cell Signaling), VINCULIN (Cat#V9131, Sigma-Aldrich), and β-ACTIN (Sigma-Aldrich).

[2] = test system: MDA-MB-231 (MDA); assay: Wound healing / transwell migration of MDA cells stably expressing miR-708; assay type: cell-based, human; conditions: MDA cells stably expressing miR-708 (lentiviral) vs controls
Text: To express miRNA-708 in cells, about 500 bp of pri-miRNA containing the mature miR-708 sequence 5′-[…]-3′ (SEQ ID NO: 2) was amplified and cloned into the pZEO lentiviral construct in fusion with a GFP reporter as described (Ryu et al., 2011). miRNA sponge was generated according to (Ebert et al., 2007). Briefly, the sponge contains twelve miR-708 binding sites, 5′-[…]-3′ (SEQ ID NO: 3) which is fused with GFP and driven by an EF1α promoter. In particular, miRNA-708 was designed and cloned into the Xho I/EcoR I site of the lentiviral vector. To express miRNA-708 inducibly in cells, a doxycycline inducible construct was generated. […]
Cells were plated in triplicate into 6-well plates (5×10^5 cell/well) and cultured in DMEM containing 10% FBS. […] Cell migration was photographed and measured under phase-contrast microscopy. To measure cell migration after depletion of intracellular calcium, a scratch was made and the wound healing was monitored for 48 hr in the presence of 20 μM of BAPTA-AM (Invitrogen). The percentage of wound healed area was measured as a ratio of occupied area to the total area using Image J program (NIH).
For transwell assays, 10,000 cells were plated in triplicate on 8 micron inserts in 24 well plates containing DMEM. […] After staining, images were obtained using a computerized Zeiss microscope (Axiovert 200M) and analyzed using Axiovision 4.6 software (Carl Zeiss Inc.).

[3] = test system: Nnat; assay: Nnat expression in MDA-MB-436 cells overexpressing miR-708; assay type: cell-based, human; conditions: MDA-MB-436 cells expressing miR-708
Description: Total RNA was extracted using the RNeasy kit (Qiagen) and converted to cDNA using Superscript II reverse transcriptase (Invitrogen). QPCR primers for Nnat were purchased from SABiosciences (Cat #PPT11378, SABiosciences), and quantitative PCR performed using iQ™ SYBER Green master mix (Biorad, Hercule, Calif.). Each sample was run in triplicate to minimize pipetting error. A standard protocol of initial denaturation at 95° C. for 3 min, 40 cycles of 95° C. for 20 sec, 60° C. for 30 sec, and 72° C. for 30 sec, followed by final extension at 72° C. for 5 min and melt curve analysis was applied on a Biorad CFX96 Real Time System (BioRad) coupled with Bio-Rad-CFX Manager software. The relative abundance of each transcript was compared with the control.

[4] = test system: MDA cells; assay: Cell proliferation assay (EdU); assay type: cell-based, human; conditions: MDA cells transformed with miR-708 lentiviral expression system
Description: For cell proliferation assays, 1×10^6 MDA cells were cultured separately in suspension in non-adhesive 6-well dishes (Corning Inc) for 2 days. EdU ([…]) was administrated to culture medium for 30 min to label proliferating cells. Cells were harvested, washed once with PBS, and fixed with 4% paraformaldehyde for 15 min at room temperature. Fixed cells were permeabilized and stained for EdU incorporation and DNA contains with the Click-iT® EdU Cell Proliferation Assay kit (Invitrogen Inc) according to the standard protocol. Flow analyses of cell phases were performed using an LSRII coupled with Diva software (BD Bioscience).

[5] = test system: MDA-MB-231 cells; assay: Orthotopic MDA tumor / pulmonary metastasis model, bioluminescence imaging; assay type: in vivo, CB-17 SCID mice
Description: For orthotopic injection, 1×10^6 viable MDA-MB-231, MDA-Cont, or MDA-miR-708 cells were injected into CB-17 SCID mice fat pads in a volume of 0.1 ml. Tumor growth and pulmonary metastases (following resection of primary tumor) were monitored by live animal bioluminescent imaging (Xenogen IVIS system) once per week.
Mice inoculated with firefly luciferase were anaesthetized and injected retro-orbitally with 75 mg/kg of D-luciferin (30 mg/mL in PBS). Images were taken with mice in a supine position using the Xenogen IVIS system coupled to Living Image acquisition and analysis software (Xenogen). For bioluminescence (BLI) plots, photon flux was calculated for each mouse by using a rectangular region of interest encompassing the thorax of the mouse.

Q: What does the source list for “miR-708: microRNA, mature sequence 5'-AAGGAGCUUACAAUCUAGCUGGG-3' (SEQ ID NO: 2); expressed from lentiviral vector or used as synthetic precursor”?
A: activated Erk (p-Erk) levels [1]: reduced levels; migration rates [2]: suppressed migration rates; Nnat levels [3]: decreased levels of Nnat; cell proliferation [4]: No significant change; primary tumor growth (bioluminescence imaging) ([5]; MDA-miR-708 vs MDA-pZeo control, day 30): no change; lung metastases (bioluminescence) ([5]; MDA-miR-708 vs control, primary tumors resected day 30, day 37): significantly suppressed; primary tumor growth (bioluminescence) ([5]; constitutive miR-708 in MDA cells, mammary fat pad, day 60): no significant difference; lung metastases (bioluminescence) ([5]; constitutive miR-708 in MDA cells, primary tumors resected day 60, day 74): suppressed lung metastases; primary tumor growth ([5]; doxycycline-mediated induction of miR-708, day 60): not affected; metastases ([5]; doxycycline-mediated induction of miR-708, day 74): attenuated metastases
